Source: patent US12338199B2, “Bis-octahydrophenanthrene carboxamides and protein conjugates thereof” (REGENERON PHARMACEUTICALS, INC., priority 2017, dated 2025)
“And” between values parts separate entries of the source, which are not always exact repeats. Equal entries are not always repeated. Where two headings read alike, the source gives them in different places.

Legend:
[1] = molecular target: T1, LXR beta (Homo sapiens, UniProt P55055); assay: LanthaScreen TR-FRET LXR beta Coactivator Assay (cell-free binding); conditions: TR-FRET, 12-point curve; read-out: Cell free binding LXRβ IC50
T1 construct: LXR alpha or beta LBD-GST; purchased ThermoFisher PV4658
T1 sequence (P55055 222-460 limits assumed): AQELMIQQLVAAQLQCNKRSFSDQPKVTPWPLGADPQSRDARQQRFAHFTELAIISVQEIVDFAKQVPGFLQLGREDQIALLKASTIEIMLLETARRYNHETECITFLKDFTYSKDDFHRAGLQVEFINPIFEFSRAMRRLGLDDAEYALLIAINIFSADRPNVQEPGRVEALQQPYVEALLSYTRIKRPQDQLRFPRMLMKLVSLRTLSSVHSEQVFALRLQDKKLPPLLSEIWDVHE

[2] = test system: THP1/LXR-Luc/Her2 cells; assay: THP1/LXR-Luc/Her2 luciferase reporter bioassay; format: cell-based; conditions: Homo sapiens
Source text: A bioassay was developed to assess the activity of LXR agonists after internalization of an agonist or of a ncADC into cells and binding to LXR, a nuclear receptor, using a commercially available LXR reporter (referred to as LXR-Luc) that contains the firefly luciferase gene under control by minimal CMV promoter and tandem repeats of the LXR transcriptional response element. For this assay, a THP1 cell line, which is a human monocytic leukaemia line, was engineered to express full length human Her2 (expressing amino acids M1 through V1255 of accession number NP_004439.2). The subsequent stable cell line was further transduced with a Cignal LXR Luc Reporter (Qiagen, Cat # CLS-7041L). The resulting stable cell line is referred to herein as THP1/Her2/LXR-Luc. The Her2 cell surface expression on THP1/Her2/LXR-Luc cell line was confirmed by FACS (data not shown).
This example assessed the ability of the LXR agonists provided herein, reference compounds, and anti-Her2 antibody-LXR ncADC to activate LXR. The samples were tested in the THP1/LXR-Luc/Her2 bioassay. For the assay, either THP1/LXR-Luc cells or THP1/LXR-Luc/Her2 cells were seeded onto white 96 well plates at 30,000 cells/well in media containing RPMI supplemented with 10% FBS and pencillin/streptomycin (complete media). Subsequently 3-fold serial dilutions of antibody drug conjugates, unconjugated antibodies, or free payloads were added to the cells at final concentration ranging from 100 nM to 0.01 nM. After 48-hour or 72-hour incubation, luciferase activity was determined after the addition of One-Glo™ reagent (Promega, Cat # E6130) to each well of cells. Relative light units (RLUs) were measured on a Victor luminometer (PerkinElmer) and the EC5o values were determined using a four-parameter logistic equation over a 10-point dose response curve (GraphPad Prism) (FIG. 15). The fold activation is calculated based on the maximum activation of the free payload 9d.

[3] = molecular target: T2, LXR alpha (Homo sapiens, UniProt Q13133); assay: LanthaScreen TR-FRET LXR alpha Coactivator Assay (cell-free binding); conditions: TR-FRET, 12-point curve; read-out: Cell free binding LXRα IC50
T2 construct: LXR alpha or beta LBD-GST; purchased ThermoFisher PV4655
T2 sequence (Q13133 209-447 limits assumed): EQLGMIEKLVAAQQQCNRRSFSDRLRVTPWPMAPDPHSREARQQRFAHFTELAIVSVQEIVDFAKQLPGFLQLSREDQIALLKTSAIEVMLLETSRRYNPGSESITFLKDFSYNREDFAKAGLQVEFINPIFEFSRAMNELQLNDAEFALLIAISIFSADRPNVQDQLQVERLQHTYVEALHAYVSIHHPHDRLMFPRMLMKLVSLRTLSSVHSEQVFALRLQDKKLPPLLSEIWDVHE

[4] = test system: ABCA1; assay: ABCA1 mRNA induction in differentiated THP-1 macrophages (TaqMan); format: cell-based, human; conditions: THP1 macrophages, 24-hour treatment; magnitude in words
Description: (§1) To determine the ability of LXR agonists to activate ABCA1 and ABCG1 genes, the mRNA levels of these two genes in differentiated macrophages was measured. […] Cells were differentiated into macrophages by treatment with 100 nM Phorbol-12 myristate 13-acetate (Sigma, # P8139), which was added to the media described above, for 72 hours. […] Chloroform was then used for phase separation. The aqueous phase, containing total RNA, was purified using MagMAX™-96 for Microarrays Total RNA Isolation Kit (Ambion, Cat # AM1830) and reverse-transcribed into cDNA using SuperScript® VILO™ Master Mix (Invitrogen, Cat #11755050) as per the manufacturer's instructions. TaqMan® was performed using Gene Expression Master Mix, the ABI 7900HT Sequence Detection System (Applied Biosystems) and the primers and probes indicated below in Table 9. The GAPDH gene was used as the internal control gene to normalize any cDNA input differences.

[5] = test system: THP-1 cells; assay: BODIPY-cholesterol efflux in THP-1 macrophages; format: cell-based, human; conditions: for EC50: Homo sapiens, THP-1
Description: The ability of anti-MSR1 antibody-LXR conjugates to activate cholesterol efflux in a human macrophage cell line (THP-1; ATCC Catalog # TIB-202), was assessed using a fluorescent cholesterol analog.
Cells were differentiated into macrophages by addition of 100 nM Phorbol-12 myristate 13-acetate (Sigma, Catalog #P 8139) to the media and subjected to further incubation for 96 hours.
Percentage of BODIPY-cholesterol efflux was calculated using the following formula: [fluorescence in acceptor media/(fluorescence in acceptor media+fluorescence in cell lysate)]×100. Table 15 provides activated cholesterol efflux for the tested articles, and FIG. 15 illustrates the data in graph form.

[6] = test system: ABCG1; assay: ABCG1 mRNA induction in differentiated THP-1 macrophages (TaqMan); format: cell-based, human; conditions: THP1 macrophages, 24-hour treatment; magnitude in words
Description: as §1

## C[C@]1(C(=O)NC(=O)[C@@]2(C)CCC[C@]3(C)c4cc(O)ccc4CC[C@@H]23)CCC[C@]2(C)c3cc(N)ccc3CC[C@@H]12 [Compound 9d, (1S,4aS,10aR)—N-[(1S,4aS,10aR)-6-Amino-1,4a-dimethyl-1,2,3,4,4a,9,10,10a-octahydrophenanthrene-1-carbonyl]-6-hydroxy-1,4a-dimethyl-1,2,3,4,4a,9,10,10a-octahydrophenanthrene-1-carboxamide]
[1]
  IC50: < 10 nM
[2]; THP-1, 48 h, 48-hour time point
  EC50: 1.6 nM
[2]; THP-1, 48 h, 48 hours, unit inferred, values correspond to M
  EC50: 1.6 nM
[2]; THP-1, 72 h, 72-hour time point
  EC50: 2.8 nM
[2]; THP-1, 72 h, 72 hours
  EC50: 2.8 nM
[3]
  IC50: < 10 nM
[4]
  ABCA1 induction EC50: sub-picomolar
[5]; 24-hour treatment, BODIPY-cholesterol efflux
  Maximum efflux (%): 36.6% and 36.7%
[5]; 24-hour treatment, read-out: Cholesterol Efflux activation EC50
  EC50: 0.15 nM
[5]; after 24 hours, read-out: Cholesterol efflux EC50
  EC50: 0.15 nM
[6]
  ABCG1 induction EC50: sub-picomolar
